“And” between values parts separate entries of the source, which are not always exact repeats. Equal values may be shown once. Read-outs that look alike come from different tables or passages of the source.
Experiments:
CA VI = target: T1, CA VI (Homo sapiens, UniProt P23280); assay: Fluorescent thermal shift assay (FTSA), CA VI; type: binding; settings: FTSA, pH 7.0, 37 °C; read-out: Compound Dissociation Constants Kd for CA VI
T1 construct: made in house

CA II = target: T2, CA II (Homo sapiens, UniProt P00918); assay: Fluorescent thermal shift assay (FTSA), CA II; type: binding; settings: pH 7.0, 37 °C, read-out: Compound Dissociation Constants Kd for CA II
T2 construct: made in house

CA VII = target: T3, CA VII (Homo sapiens, UniProt P43166); assay: Fluorescent thermal shift assay (FTSA), CA VII; type: binding
T3 construct: made in house

CA XIII = target: T4, CA XIII (Homo sapiens, UniProt Q8N1Q1); assay: Fluorescent thermal shift assay (FTSA), CA XIII; type: binding; settings: FTSA, pH 7.0, 37 °C; read-out: Compound Dissociation Constants Kd for CA XIII
T4 construct: made in house

CA XII = target: T5, CA XII (Homo sapiens, UniProt O43570); assay: Fluorescent thermal shift assay (FTSA), CA XII; type: binding; settings: FTSA, pH 7.0, 37 °C; read-out: Compound Dissociation Constants Kd for CA XII
T5 construct: made in house

CA I = target: T6, CA I (Homo sapiens, UniProt P00915); assay: Fluorescent thermal shift assay (FTSA), CA I; type: binding
T6 construct: made in house

[1] = FTSA, pH 7.0, 37 °C, read-out: Compound Dissociation Constants Kd for CA VII
[2] = FTSA, pH 7.0, 37 °C, read-out: Compound Dissociation Constants Kd for CA I

T6 sequence (P00915 whole entry): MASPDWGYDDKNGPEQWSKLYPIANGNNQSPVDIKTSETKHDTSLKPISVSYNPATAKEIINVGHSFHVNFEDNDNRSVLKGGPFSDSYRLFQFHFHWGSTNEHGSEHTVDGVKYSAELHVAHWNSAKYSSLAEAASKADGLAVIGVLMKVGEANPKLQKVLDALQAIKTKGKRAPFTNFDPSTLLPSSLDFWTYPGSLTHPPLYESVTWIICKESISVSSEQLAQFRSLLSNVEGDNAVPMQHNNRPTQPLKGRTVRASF
T1 sequence (P23280 18-308): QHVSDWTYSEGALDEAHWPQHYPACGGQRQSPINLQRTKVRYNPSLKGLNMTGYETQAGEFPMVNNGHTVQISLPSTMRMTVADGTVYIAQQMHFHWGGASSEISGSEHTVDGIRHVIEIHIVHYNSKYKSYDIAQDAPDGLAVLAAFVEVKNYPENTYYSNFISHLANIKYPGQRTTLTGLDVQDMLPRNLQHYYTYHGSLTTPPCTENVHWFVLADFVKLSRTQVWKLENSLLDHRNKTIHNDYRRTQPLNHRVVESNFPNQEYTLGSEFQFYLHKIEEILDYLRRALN
T5 sequence (O43570 30-289 limits assumed): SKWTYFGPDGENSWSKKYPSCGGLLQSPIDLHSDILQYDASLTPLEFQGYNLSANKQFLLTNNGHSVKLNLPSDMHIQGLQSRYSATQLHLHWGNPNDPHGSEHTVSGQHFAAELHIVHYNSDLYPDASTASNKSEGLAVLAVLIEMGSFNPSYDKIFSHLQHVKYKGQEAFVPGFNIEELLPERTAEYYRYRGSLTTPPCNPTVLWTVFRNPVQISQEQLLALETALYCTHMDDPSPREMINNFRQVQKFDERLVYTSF
T3 sequence (P43166 whole entry): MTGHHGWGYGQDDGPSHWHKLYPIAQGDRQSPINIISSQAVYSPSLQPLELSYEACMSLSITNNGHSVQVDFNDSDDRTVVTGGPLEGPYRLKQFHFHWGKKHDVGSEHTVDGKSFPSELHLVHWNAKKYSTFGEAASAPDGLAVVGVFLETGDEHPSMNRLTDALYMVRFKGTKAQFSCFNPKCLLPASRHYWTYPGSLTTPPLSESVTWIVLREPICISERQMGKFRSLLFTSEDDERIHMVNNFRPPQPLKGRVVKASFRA
T4 sequence (Q8N1Q1 whole entry): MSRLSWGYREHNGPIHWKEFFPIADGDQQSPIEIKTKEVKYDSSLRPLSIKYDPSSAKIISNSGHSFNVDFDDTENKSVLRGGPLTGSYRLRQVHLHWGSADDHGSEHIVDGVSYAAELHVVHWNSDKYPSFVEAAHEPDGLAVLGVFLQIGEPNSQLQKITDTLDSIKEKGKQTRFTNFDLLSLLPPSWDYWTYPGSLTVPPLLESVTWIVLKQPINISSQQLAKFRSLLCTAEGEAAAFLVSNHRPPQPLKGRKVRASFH

Structure (SMILES)	Kd (CA VI) [µM]	Kd (CA II)	Kd (CA VII; [1]) [µM]	Kd (CA XIII) [µM]	Kd (CA XII) [µM]	Kd (CA I; [2]) [µM]	Kd (CA VII) [µM]	Kd (CA I) [µM]	times more weakly bound to CA I than SA (CA I; ratio of Kd, FTSA) [times]	melting point [°C]	selectivity: bound to CA I times stronger than to CA II (CA I; ratio of FTSA Kd) [times]	selectivity: bound to CA I times stronger than to CA VI (CA I; ratio of FTSA Kd) [times]	selectivity: bound to CA I times stronger than to CA VII (CA I; ratio of FTSA Kd) [times]	selectivity: bound to CA I times stronger than to CA XII (CA I; ratio of FTSA Kd) [times]	selectivity: bound to CA I times stronger than to CA XIII (CA I; ratio of FTSA Kd) [times]	CA I binding in the presence (32) versus absence (34) of the diazo group (CA I; comparison of Kd of 32 and 34)
NS(=O)(=O)c1ccccc1 [BSA, benzenesulfonamide]	14															
NS(=O)(=O)c1ccc(NCCC(=O)O)cc1 [Compound 3, 3-[(4-Sulfamoylphenyl)amino]propanoic Acid]	62.5	12.5 µM	22.2	33.3	9.5	40										
CCSC(=NS(=O)(=O)c1ccc(NCCC(=O)O)cc1)SCC [Compound 4, 3-[(4-{[Bis(ethylthio)methylene]sulfamoyl}phenyl)amino]propanoic Acid]	> 200	40 µM	> 200	> 200	> 200	> 200										
NS(=O)(=O)c1ccc(N2CCC(=O)NC2=O)cc1 [Compound 5, 4-(2,4-Dioxo-1,3-diazinan-1-yl)benzene-1-sulfonamide]	12.5	0.83 µM and 0.833 µM	1.54	8.33	5.56	3.85										
NS(=O)(=O)c1ccc(N2CCC(=O)NC2=S)cc1 [Compound 6, 4-(4-Oxo-2-sulfanylidene-1,3-diazinan-1-yl)benzene-1-sulfonamide]	8.3	0.67 µM and 0.667 µM	1.61	2.86	5.56	1.11										
COC(=O)CCNc1ccc(S(N)(=O)=O)cc1 [Compound 7, Methyl-3-[(4-sulfamoylphenyl)amino]propanoate]	71.4	9.1 µM		58.8	33.3		35.7	35.7								
NNC(=O)CCNc1ccc(S(N)(=O)=O)cc1 [Compound 8, 4-{[(2-Hydrazinecarbonyl)ethyl]amino}benzene-1-sulfonamide]	62.5	10.5 µM	28.6	76.9	33.3	55.6										
NC(=S)NNC(=O)CCNc1ccc(S(N)(=O)=O)cc1 [Compound 9, N-(Carbamothioylamino)-3-[(4-sulfamoylphenyl)amino]propanamide]	50	10 µM	28.6	76.9	33.3	58.8										
Nc1nnc(CCNc2ccc(S(N)(=O)=O)cc2)s1 [Compound 10, 4-{[2-(5-Amino-1,3,4-thiadiazol-2-yl)ethyl]amino}benzene-1-sulfonamide]	140	20 µM	100	83	130	170			1.7							
CC(C)=NNC(=O)CCNc1ccc(S(N)(=O)=O)cc1 [Compound 11, 4-{[2-(N'-Propan-2-ylidenehydrazinecarbonyl)ethyl]amino}benzene-1-sulfonamide]	71.4	7.14 µM	28.6	50	33.3	45.5				216 to 217						
CC(=NNC(=O)CCNc1ccc(S(N)(=O)=O)cc1)c1ccccc1 [Compound 12, 4-{(2-[N'-(1-Phenylethylidene)hydrazinecarbonyl]ethyl}amino]benzene-1-sulfonamide]	25	1.85 µM	12.5	5.56	33.3	15.4				185 to 186						
NS(=O)(=O)c1ccc(NCCC(=O)NN=C(c2ccccc2)c2ccccc2)cc1 [Compound 13, 4-({2-[N'-(Diphenylmethylidene)hydrazinecarbonyl]ethyl}amino)benzene-1-sulfonamide]	25	1.43 µM	16.7	4.35	50	11.5				170 to 171						
Cc1ccc(C)n1NC(=O)CCNc1ccc(S(N)(=O)=O)cc1 [Compound 19]	25	2 µM	11.1	6.25	28.6	16.7										
NS(=O)(=O)c1ccc(NCCC(=O)NNC(=O)Nc2ccccc2)cc1 [Compound 20, N-[(Phenylcarbamoyl)amino]-3-[(4-sulfamoylphenyl)amino]propanamide]	7.1	4 µM	12.5	18.5	1.85	28.6										
NS(=O)(=O)c1ccc(NCCC(=O)NNC(=S)Nc2ccccc2)cc1 [Compound 21, N-[(Phenylcarbamothioyl)amino]-3-[(4-sulfamoylphenil)amino]propanamide]	8.3	4 µM	5.56	9.09	5.56	9.09										
NS(=O)(=O)c1ccc(NCCc2n[nH]c(=S)o2)cc1 [Compound 24, 4-{[2-(5-Sulfanylidene-4,5-dihydro-1,3,4-oxadiazol-2-yl)ethyl]amino}benzene-1-sulfonamide]	33.3	4.55 µM	4.55	26.3	5.88	12.5										

Further lines, results first:

Kd (CA VI) [µM]	Kd (CA II)	Kd (CA VII; [1]) [µM]	Kd (CA XIII) [µM]	Kd (CA XII) [µM]	Kd (CA I; [2]) [µM]	Kd (CA VII) [µM]	Kd (CA I) [µM]	times more weakly bound to CA I than SA (CA I; ratio of Kd, FTSA) [times]	melting point [°C]	selectivity: bound to CA I times stronger than to CA II (CA I; ratio of FTSA Kd) [times]	selectivity: bound to CA I times stronger than to CA VI (CA I; ratio of FTSA Kd) [times]	selectivity: bound to CA I times stronger than to CA VII (CA I; ratio of FTSA Kd) [times]	selectivity: bound to CA I times stronger than to CA XII (CA I; ratio of FTSA Kd) [times]	selectivity: bound to CA I times stronger than to CA XIII (CA I; ratio of FTSA Kd) [times]	CA I binding in the presence (32) versus absence (34) of the diazo group (CA I; comparison of Kd of 32 and 34)	Structure (SMILES)
28.6	1.18 µM	5.6	3.33	10.5	5.88											CCSc1nnc(CCNc2ccc(S(N)(=O)=O)cc2)o1 [Compound 25, 4-({2-[5-(Ethylsulfanyl)-1,3,4-oxadiazol-2-yl]ethyl}amino)benzene-1-sulfonamide]
13.3	0.181 µM	0.769	0.4	2.7	0.1											CN(C)/N=N/c1ccc(S(N)(=O)=O)cc1 [Compound 26]
13.3	0.0714 µM	0.2	0.1	0.588	0.0133											CCN(CC)/N=N/c1ccc(S(N)(=O)=O)cc1 [Compound 27]
13.3	0.133 µM	0.454	0.167	1.81	0.0333											NS(=O)(=O)c1ccc(/N=N/N2CCCC2)cc1 [Compound 28]
11.8	0.1 µM	0.4	0.222	3.3	0.029											NS(=O)(=O)c1ccc(/N=N/N2CCOCC2)cc1 [Compound 29]
10	0.0625 µM	0.12	0.0667	0.77	0.00667					9.4	1500	18	115	10		NS(=O)(=O)c1ccc(/N=N/N2CCCCC2)cc1 [Compound 30]
3.2	0.0667 µM	0.286	1.4	2	0.0333										about six-fold stronger	NS(=O)(=O)c1ccc(/N=N/SCCO)cc1 [Compound 32]
8.3	0.278 µM	1	2.86	6.25	0.5											NCCS/N=N/c1ccc(S(N)(=O)=O)cc1 [Compound 33]

Source: PMC6271771, “4-Amino-substituted Benzenesulfonamides as Inhibitors of Human Carbonic Anhydrases” (Molecules, 2014)
